Test results published in paper PMC5800494 (ACS chemical biology, 2017).
≈ marks a conversion by molar mass, not a printed value.

Assays:
[1] = molecular target: E. coli RNAP core enzyme (Escherichia coli, UniProt P0A800+P0A8T7+P0A8V2); test: AS-MS; format: binding
[2] = molecular target: RNAP (Escherichia coli, UniProt P0A800+P0A8T7+P0A8V2); test: biochemical; design: species or system E. coli
[3] = molecular target: RNAP (wild-type, co-expressed) (Escherichia coli, UniProt P0A800+P0A8T7+P0A8V2); test: biochemical; design: species or system E. coli
[4] = molecular target: [D516V]β-RNAP (Escherichia coli, UniProt P0A800+P0A8T7+P0A8V2, D516V); test: biochemical; design: species or system E. coli
[5] = molecular target: [H526D]β-RNAP (Escherichia coli, UniProt P0A800+P0A8T7+P0A8V2, H526D); test: biochemical; design: species or system E. coli
[6] = molecular target: [S531L]β-RNAP (Escherichia coli, UniProt P0A800+P0A8T7+P0A8V2, S531L); test: biochemical; design: species or system E. coli
[7] = tested on: [D622G]β′-RNAP; test: Fluorescence-detected RNAP inhibition assay; format: biochemical, E. coli; details: enzyme: [D622G]β′-RNAP vs RNAP (co-expressed)
[8] = molecular target: RNAP (reconstituted) (Escherichia coli, UniProt P0A800+P0A8T7+P0A8V2); test: biochemical; format: biochemical, E. coli
[9] = tested on: Δω RNAP; format: biochemical, E. coli; details: enzyme: Δω RNAP vs RNAP (reconstituted)
[10] = tested on: E. coli MB5746 (lpxC tolC); test: Broth microdilution MIC; format: cell-based; details: Escherichia coli
[11] = tested on: E. coli D21f2tolC (rfa tolC); test: Broth microdilution MIC; format: cell-based; details: Escherichia coli
[12] = tested on: E. coli D21f2tolC Rif^R-D516V (rfa tolC rpoB-D516V); test: Broth microdilution MIC; format: cell-based; details: Escherichia coli
[13] = tested on: E. coli D21f2tolC Rif^R-H526D (rfa tolC rpoB-H526D); test: Broth microdilution MIC; format: cell-based; details: Escherichia coli
[14] = tested on: E. coli D21f2tolC Rif^R-S531L (rfa tolC rpoB-S531L); test: Broth microdilution MIC; format: cell-based; details: Escherichia coli
[15] = tested on: E. coli MB5746 RpoC (RNAP β′ subunit) D622G mutant; test: Broth microdilution MIC on MRL-436-resistant mutant; format: cell-based; details: RpoC D622G mutant of MB5746
[16] = tested on: E. coli MB5746 RpoZ (RNAP ω subunit) Δ13–91 (frameshift) mutant; test: as above; format: cell-based; details: RpoZ Δ13–91 (frameshift) mutant of MB5746
[17] = tested on: E. coli MB5746 RpoZ (RNAP ω subunit) Δ21–91 (frameshift) mutant; test: as above; format: cell-based; details: RpoZ Δ21–91 (frameshift) mutant of MB5746
[18] = tested on: E. coli MB5746 RpoZ (RNAP ω subunit) Δ23–91 (frameshift) mutant; test: as above; format: cell-based; details: RpoZ Δ23–91 (frameshift) mutant of MB5746
[19] = tested on: E. coli MB5746 RpoZ (RNAP ω subunit) Δ24–91 (frameshift) mutant; test: as above; format: cell-based; details: RpoZ Δ24–91 (frameshift) mutant of MB5746
[20] = tested on: E. coli MB5746 RpoZ (RNAP ω subunit) Δ35–91 (frameshift) mutant; test: as above; format: cell-based; details: RpoZ Δ35–91 (frameshift) mutant of MB5746
[21] = tested on: E. coli MB5746 RpoZ (RNAP ω subunit) Δ1–91 (deletion); test: Broth microdilution MIC on constructed ΔrpoZ strain; format: cell-based; details: RpoZ Δ1–91 (deletion) of MB5746
[22] = molecular target: yeast invertase (Saccharomyces cerevisiae, UniProt P00724); details: compound at 10 μM against 5μM invertase

`CO[C@H]1/C=C/O[C@@]2(C)Oc3c(C)c(O)c4c(O)c(c(/C=N/N5CCN(C)CC5)c(O)c4c3C2=O)NC(=O)/C(C)=C\C=C\[C@H](C)[C@H](O)[C@@H](C)[C@@H](O)[C@@H](C)[C@H](OC(C)=O)[C@@H]1C` [Rif, rifampin] was tested, and the Kd [1] was < 2 µM, the IC50 [2] was 0.02 µM and the IC50 [3] was 0.03 µM. The “IC50 ratio (IC50/IC50wild-type)” value ([3]; enzyme: RNAP (co-expressed)) was 1, the IC50 [4] was 70 µM and the IC50 [5] was > 100 µM. The IC50 [6] was 80 µM, the “IC50 ratio (IC50/IC50wild-type)” value [7] was 1 and the IC50 [8] was 0.04 µM. For the same molecule, the “IC50 ratio (IC50/IC50wild-type)” value ([8]; enzyme: RNAP (reconstituted)) was 1, the “IC50 ratio (IC50/IC50wild-type)” value [9] was 0.5 and the MIC [10] was 0.5 µg/mL (≈ 0.608 µM). It also gave an MIC [11] of 0.5 µg/mL (≈ 0.608 µM), an MIC [12] of 32 µg/mL (≈ 38.9 µM) and an MIC [13] of 128 µg/mL (≈ 156 µM). For the same molecule, the MIC [14] was 64 µg/mL (≈ 77.8 µM), the “resistance level (MIC/MICwild-type)” value [15] was 1 and the “resistance level (MIC/MICwild-type)” value [16] was 1. For the same molecule, the “resistance level (MIC/MICwild-type)” value [17] was 1, the “resistance level (MIC/MICwild-type)” value [18] was 1 and the “resistance level (MIC/MICwild-type)” value [19] was 1. The “resistance level (MIC/MICwild-type)” value [20] was 1, the “resistance level (MIC/MICwild-type)” value [21] was 1 and the “AS-MS signal against invertase (selectivity counter-screen)” value [22] was “did not show an AS-MS signal”.
